According to patent US6806264B2, “Arylphenyl-substituted cyclic ketoenols” (Bayer Aktiengesellschaft, priority 1998, dated 2004):

What was measured:
[1] = system: peach aphids (Myzus persicae); experiment: Myzus test; type: in vivo; conditions: concentration of active compound 0.1 %, infested cabbage leaves (Brassica oleracea) dipped
[2] = system: larvae of the mustard beetle (Phaedon cochileariae); experiment: Phaedon larvae test; conditions: concentration of active compound 0.1 %, cabbage leaves (Brassica oleracea) dipped
[3] = system: caterpillars of the army worm (Spodoptera frugiperda); experiment: Spodoptera frugiperda test; type: in vivo; conditions: concentration of active compound 0.1 %, cabbage leaves (Brassica oleracea) dipped
[4] = system: greenhouse red spidermite (Tetranychus urticae); experiment: Tetranychus test (OP-resistant/dip treatment); type: in vivo; conditions: concentration of active compound 0.1 %, infested bean plants (Phaseolus vulgaris) dipped, OP-resistant
Description: After the desired period of time, the effect in % is determined.

melting point	Compound	Degree of kill in % after 6 days [1]	Degree of kill in % after 7 days [2]	Degree of kill in % after 7 days [3]	Degree of kill in % after 7 days [4]
> 240 °C	Cc1ccc(-c2ccccc2)c(C)c1C1=C(O)C2(CCC(C)CC2)NC1=O (stereo not drawn) [Ex. I-1-a-2]	95%	100%		
> 240 °C	Cc1ccc(-c2ccc(Cl)cc2)c(C)c1C1=C(O)C2(CCC(C)CC2)NC1=O (stereo not drawn) [Ex. I-1-a-3]	98%	100%	100%	100%
> 240 °C	COC1CCC2(CC1)NC(=O)C(c1c(C)cc(C)c(-c3ccccc3)c1C)=C2O (stereo not drawn) [Ex. I-1-a-6]	100%	100%	100%	
134 °C	COc1cc(Cl)c(C2=C(O)C3(CCC(OC)CC3)NC2=O)cc1-c1ccccc1 (stereo not drawn) [Ex. I-1-a-13]		100%		

Compound	melting point	Degree of kill in % after 6 days [1]	Degree of kill in % after 7 days [2]	Degree of kill in % after 7 days [3]	Degree of kill in % after 7 days [4]
COC1CCC2(CC1)NC(=O)C(c1c(C)cc(C)c(-c3ccc(Cl)cc3)c1C)=C2O (stereo not drawn) [Ex. I-1-a-5]	> 240 °C		100%	100%	
Cc1ccc(-c2ccc(Cl)cc2)c(C)c1C1=C(O)C2(CCCOC2)NC1=O (stereo not drawn) [Ex. I-1-a-7]	> 250 °C	98%	100%	100%	
